The test deals with T1, human FXR (cotransfected with RXR) (Homo sapiens, UniProt Q96RI1).
T1 sequence (Q96RI1 1-486): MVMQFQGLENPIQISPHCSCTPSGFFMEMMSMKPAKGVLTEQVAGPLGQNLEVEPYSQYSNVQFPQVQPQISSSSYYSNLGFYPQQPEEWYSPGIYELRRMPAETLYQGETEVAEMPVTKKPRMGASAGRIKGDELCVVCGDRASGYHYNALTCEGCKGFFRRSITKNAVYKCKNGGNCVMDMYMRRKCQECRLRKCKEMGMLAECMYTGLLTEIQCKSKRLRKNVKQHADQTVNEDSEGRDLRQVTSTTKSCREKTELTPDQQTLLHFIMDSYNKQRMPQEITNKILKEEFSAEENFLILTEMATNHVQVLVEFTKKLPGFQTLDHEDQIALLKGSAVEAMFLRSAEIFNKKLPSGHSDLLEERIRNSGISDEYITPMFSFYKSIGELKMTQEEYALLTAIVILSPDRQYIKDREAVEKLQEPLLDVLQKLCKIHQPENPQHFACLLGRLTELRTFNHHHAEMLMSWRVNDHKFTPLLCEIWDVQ
T1 sequence (P19793 1-462 partner): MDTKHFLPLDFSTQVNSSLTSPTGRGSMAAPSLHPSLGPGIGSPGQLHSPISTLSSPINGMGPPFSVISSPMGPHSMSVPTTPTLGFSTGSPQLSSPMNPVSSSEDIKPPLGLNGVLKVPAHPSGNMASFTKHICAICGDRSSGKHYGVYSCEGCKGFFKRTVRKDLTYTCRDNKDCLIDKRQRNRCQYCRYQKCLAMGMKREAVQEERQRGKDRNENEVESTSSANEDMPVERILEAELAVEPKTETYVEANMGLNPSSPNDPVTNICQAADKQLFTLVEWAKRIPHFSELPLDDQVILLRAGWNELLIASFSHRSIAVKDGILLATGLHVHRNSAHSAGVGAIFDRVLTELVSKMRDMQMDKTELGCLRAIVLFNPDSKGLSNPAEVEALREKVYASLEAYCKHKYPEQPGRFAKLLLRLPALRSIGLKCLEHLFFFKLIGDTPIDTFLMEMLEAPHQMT
In words: FXRE-luciferase reporter in HEK293. In kind it is cell-based. (In general: In a reporter assay the amount or activity of a reporter protein is the signal.)

The values below come from article PMC11588130 (Proceedings of the National Academy of Sciences of the …, 2024).

A word on the IC50: it is the concentration at which inhibition is half-maximal. `C[C@H](CCC(=O)O)[C@H]1CC[C@H]2[C@@H]3C(=O)C[C@@H]4C[C@H](O)CC[C@]4(C)[C@H]3C[C@H](O)[C@]12C` [7-oxo-DCA] showed an IC50 of 13.8 µM.
